Test results reported in patent US9877980B2, “Method and composition for treatment or prevention of type 2 diabetes and hyperlipidemia” (Chun-Ching Shih, priority 2016, dated 2018).
Marks after values point to notes of the source that are not given here.

Columns and labels:
Format in all cases: in vivo
hepatocytes of HFD mice = assay: Histology of liver tissue (hepatocellular ballooning); conditions: 4 weeks, grade 0 absence, 1 a few cells
Description: (§1) The following experiment was performed and approved by the guidelines of the Institutional Animal Care and Use Committee of Central Taiwan University of Science and Technology. The 4-week old male C57BL/6J mice (total amount n=63) were purchased from the National Laboratory Animal Breeding and Research Center (Taipei, Taiwan). After acclimatization for one week, all of the mice were divided randomly into the control (CON) group and the high-fat diet (HFD) group. For the following 12 weeks, the CON group (n=9) was kept on a low-fat diet (Diet 12450B, Research Diets, Inc., New Brunswick, N.J., USA), while the HFD group (n=54) was exposed to a high-fat diet (Diet 12451, Research Diets, New Brunswick, N.J., USA). The low-fat diet was composed of protein 20%, carbohydrate 70% and fat 10%, whereas the high-fat diet was composed of protein 20%, carbohydrate 35%, and fat 45% (of total energy, % kcal). After HFD exposure for 8 weeks, the HFD group was further randomly subdivided into 6 groups (n=9 per group) to receive different treatments by oral gavage once daily for four weeks and on HFD. […] The HF+B1, HF+B2, and […] are collectively termed BB-treated HFD groups in the following examples. The CON mice were administered vehicle. After dosing for 4 weeks, the mice were given no food at night and sacrificed after 12 h of fasting on the next day. All of the individual tissues were collected and weighed, and portions were instantly frozen using liquid nitrogen and kept at −80° C. for subsequent target gene analysis. Blood samples (0.8 mL) were collected for analysis of blood parameters.
Small pieces of epididymal white adipose tissue and liver tissue were fixed with formalin (200 g/kg) neutral buffered solution and embedded in paraffin. Sections of 8 μm […] were cut and stained with hematoxylin and eosin. For microscopic examination, a microscope (Leica, DM2500) was used, and the images were taken using a Leica Digital Camera (DFC-425-C).
Based on previous report, the designation of histological hepatocellular ballooning findings include grade 0 for absence of degeneration, grade 1 for degeneration in a few cells, and […] for degeneration in many cells.

DGAT2 = assay: Semi-quantitative RT-PCR of liver mRNA: DGAT2; conditions: HFD mice, 4 weeks, vs HF group
Description: as §1, with “For the following 12 weeks, the CON group (n=9) was kept on a low-fat diet (Diet 12450B, Research Diets, Inc., New Brunswick, N.J., USA), while the HFD group (n=54) was exposed to a high-fat diet (Diet 12451, Research Diets, New Brunswick, N.J., USA). The low-fat diet was composed of protein 20%, carbohydrate 70% and fat 10%, whereas the high-fat diet was composed of protein 20%, carbohydrate 35%, and fat 45% (of total energy, % kcal).” left out
Total RNA from liver tissue of mice was isolated with a Trizol Reagent (Molecular Research Center, Inc., Cincinnati, Ohio, USA) according to the manufacturer's instructions. The integrity of the extracted total RNA was examined by 2% agarose gel electrophoresis, and the RNA concentration was determined by the ultraviolet (UV) light absorbency at 260 nm and 280 nm (Spectrophotometer U-2800A, Hitachi). The quality of the RNA was confirmed by ethidium bromide staining of 18S and 28S ribosomal RNA after electrophoresis on 2% agarose gel containing 6% formaldehyde.
Levels of mRNA of genes of interest were quantified by semi-quantitative reverse transcription polymerase chain reaction (RT-PCR). […] PCR products were analyzed by 2% agarose gels and stained with ethidium bromide.

[1] = tested on: C57BL/6J mice on high-fat diet (HFD); assay: Hepatic lipids in HFD mice; conditions: 4 weeks
Description: as §1
For hepatic lipid extraction, a 0.375 g liver samples were homogenized with 1 mL distill water for 5 minutes. The dried pellet was finally resuspended in 0.5 mL ethanol and analyzed using a triglycerides kit as used for analyzing the serum lipids set forth above.

GLUT4 = assay: Western blotting of membrane GLUT4 in skeletal muscle; conditions: HFD mice, 4 weeks, vs HF group
Description: as §1, with “For the following 12 weeks, the CON group (n=9) was kept on a low-fat diet (Diet 12450B, Research Diets, Inc., New Brunswick, N.J., USA), while the HFD group (n=54) was exposed to a high-fat diet (Diet 12451, Research Diets, New Brunswick, N.J., USA). The low-fat diet was composed of protein 20%, carbohydrate 70% and fat 10%, whereas the high-fat diet was composed of protein 20%, carbohydrate 35%, and fat 45% (of total energy, % kcal).” left out
The protein concentration in supernatant was determined with a BCA protein assay kit (Thermo Scientific, Rockford, Ill., USA). […] Immunoreactive bands were detected with ECL reagent kit (GE Healthcare BioSciences, Buckinghamshire, UK).

OCC1O[C@@H](O[C@@H]2Cc3c(O)cc(O)cc3O[C@@H]2c2ccc(O)c(O)c2)C(O)C(O)[C@@H]1O (single isomer, unassigned; (-)) [compound of formula I, (−)-epicatechin-3-O-β-D-allopyranoside]
hepatocellular ballooning mean score (hepatocytes of HFD mice; 10 mg/kg/day oral gavage): 0.7±0.1
hepatocellular ballooning mean score (hepatocytes of HFD mice; 20 mg/kg/day oral gavage): 0.5±0.2
hepatocellular ballooning mean score (hepatocytes of HFD mice; 40 mg/kg/day oral gavage): 0.4±0.1
liver mRNA level of DGAT2 (DGAT2; 10 mg/kg/day oral gavage): significantly reduced
liver mRNA level of DGAT2 (DGAT2; 20 mg/kg/day oral gavage): significantly reduced
liver mRNA level of DGAT2 (DGAT2; 40 mg/kg/day oral gavage): significantly reduced
Liver lipids Total lipid ([1]; 10 mg/kg/day oral gavage): 71.9 ± 6.5^d mg/g
Liver lipids Triacylglycerol ([1]; 10 mg/kg/day oral gavage): 49.9 ± 8.0^d μmol/g
Liver lipids Total lipid ([1]; 20 mg/kg/day oral gavage): 66.1 ± 6.9^e mg/g
Liver lipids Triacylglycerol ([1]; 20 mg/kg/day oral gavage): 42.8 ± 6.5^f μmol/g
Liver lipids Total lipid ([1]; 40 mg/kg/day oral gavage): 60.2 ± 5.2^f mg/g
Liver lipids Triacylglycerol ([1]; 40 mg/kg/day oral gavage): 40.8 ± 4.6^f μmol/g
protein level of GLUT4 at the plasma membrane (GLUT4; 10 mg/kg/day oral gavage): significantly enhanced
protein level of GLUT4 at the plasma membrane (GLUT4; 20 mg/kg/day oral gavage): significantly enhanced
protein level of GLUT4 at the plasma membrane (GLUT4; 40 mg/kg/day oral gavage): significantly enhanced
